Molecular target: NAD-dependent protein deacylase sirtuin-5, mitochondrial (Homo sapiens) (UniProt Q9NXA8)
Assay: SIRT5 thermal stabilisation by ligands, biophysical, StarGazer light scattering (AID 458)
Details: at 1 mM, protein 12 µM, stronger effect = higher value

NAD-dependent protein deacylase sirtuin-5, mitochondrial (Homo sapiens), sequence (Q9NXA8 whole entry, looked up): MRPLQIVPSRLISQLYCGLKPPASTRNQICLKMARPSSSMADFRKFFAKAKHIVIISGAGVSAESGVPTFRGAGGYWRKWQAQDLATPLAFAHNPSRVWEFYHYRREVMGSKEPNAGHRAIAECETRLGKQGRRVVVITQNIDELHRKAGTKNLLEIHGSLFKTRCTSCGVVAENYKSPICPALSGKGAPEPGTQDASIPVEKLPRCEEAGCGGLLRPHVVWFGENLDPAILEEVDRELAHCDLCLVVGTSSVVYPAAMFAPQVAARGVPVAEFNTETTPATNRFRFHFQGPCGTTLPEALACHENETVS

Row | SMILES | Tagg shift
1 | CC(/C=C/C(=O)NO)=C\[C@@H](C)C(=O)c1ccc(N(C)C)cc1 | 5.1 °C
2 | Cc1ccc(C(=O)Nc2ccc(S(=O)(=O)O)c3cc(S(=O)(=O)O)cc(S(=O)(=O)O)c23)cc1NC(=O)c1cccc(NC(=O)Nc2cccc(C(=O)Nc3cc(C(=O)Nc4ccc(S(=O)(=O)O)c5cc(S(=O)(=O)O)cc(S(=O)(=O)O)c45)ccc3C)c2)c1 | 27 °C

From PubChem BioAssay AID458
